For this test, the system named is HCV 1b-377-neo replicon cells. Kind of test: HCV Replicon assay, HCV 1b-377-neo replicon cells. In kind it is cell-based, HCV 1b genotype.
Where [1] appears, read: Hepatitis C virus, Table 2, read-out: Range (EC50 against HCV 1b).

Molecules are shown by their SMILES. Like-named read-outs stand apart in the source and are kept apart here.

As for `COC(=O)N[C@H](C(=O)N1CCC[C@H]1c1ncc(-c2ccc(-c3ccc(-c4cnc([C@@H]5CCCN5C(=O)[C@@H](NC(=O)OC)C(C)C)[nH]4)cc3C(N)=O)cc2)[nH]1)C(C)C` [Example M118, methyl((1S)-1-(((2S)-2-(5-(2′-carbamoyl-4′-(2-((2S)-1-((2S)-2-((methoxycarbonyl)amino)-3-methylbutanoyl)-2-pyrrolidinyl)-1H-imidazol-5-yl)-4-biphenylyl)-1H-imidazol-2-yl)-1-pyrrolidinyl)carbonyl)-2-methylpropyl)carbamate], the half-maximal effective concentration (EC50) under setting [1] was 1000 to 10000 nM.
On the same count and under the same terms, then `COC(=O)N[C@H](C(=O)N[C@H](c1ncc(-c2ccc(-c3ccc(-c4cnc([C@@H]5CCCN5C(=O)[C@@H](NC(=O)OC)C(C)C)[nH]4)cc3)cc2)[nH]1)[C@@H](C)O)C(C)C` [Example R29], with 0.001 to 0.999 nM; and `COC(=O)N[C@@H](C(=O)N1CCC[C@H]1c1ncc(-c2ccc(-c3ccc(-c4cnc([C@@H]5CCCN5C(=O)[C@@H]5CCCO5)[nH]4)cc3C)cc2)[nH]1)c1ccccc1` [Example 128, methyl ((1R)-2-((2S)-2-(5-(2′-methyl-4′-(2-((2S)-1-((2S)-tetrahydro-2-furanylcarbonyl)-2-pyrrolidinyl)-1H-imidazol-5-yl)-4-biphenylyl)-1H-imidazol-2-yl)-1-pyrrolidinyl)-2-oxo-1-phenylethyl)carbamate], with 0.001 to 0.999 nM.
`CN(C)[C@@H](C(=O)N1CCC[C@H]1c1nc(-c2ccc(-c3ccc(-c4cn(C)c([C@@H]5CCCN5C(=O)[C@@H](c5ccccc5)N(C)C)n4)cc3)cc2)cn1C)c1ccccc1` (single isomer, unassigned) [Example 151 isomer 1]: for the setting “Table 2, listed as 151 isomer 1, read-out: Range (EC50 against HCV 1b)”, the concentration for a half-maximal effect (EC50) was in the range of 1 to 99 nM.
Take `COC(=O)N[C@@H](C(=O)N1CCC[C@H]1c1ncc(-c2ccc(-c3ncc(-c4cnc([C@@H]5CCCN5C(=O)[C@H](NC(=O)OC)c5ccccc5)[nH]4)cn3)cc2)[nH]1)c1ccccc1` [Example 152j-2, methyl ((1R)-2-((2S)-2-(5-(2-(4-(2-((2S)-1-((2R)-2-((methoxycarbonyl)amino)-2-phenylacetyl)-2-pyrrolidinyl)-1H-imidazol-5-yl)phenyl)-5-pyrimidinyl)-1H-imidazol-2-yl)-1-pyrrolidinyl)-2-oxo-1-phenylethyl)carbamate]: under setting [1], the 50% effective concentration (EC50) lay in the range of 0.001 to 0.999 nM.
On the same count and under the same terms, then `COC(=O)N[C@@H](C(=O)N1CCC[C@H]1c1ncc(-c2ccc(-c3ccc(-c4cnc([C@@H]5CCCN5C(=O)[C@H](NC(=O)OC)c5ccccc5)[nH]4)cc3C)nc2)[nH]1)c1ccccc1` [Example 138, methyl((1R)-2-((2S)-2-(5-(6-(4-(2-((2S)-1-((2R)-2-((methoxycarbonyl)amino)-2-phenylacetyl)-2-pyrrolidinyl)-1H-imidazol-5-yl)-2-methylphenyl)-3-pyridinyl)-1H-imidazol-2-yl)-1-pyrrolidinyl)-2-oxo-1-phenylethyl)carbamate], with 0.001 to 0.999 nM; and `COC(=O)N[C@@H](C(=O)N1CCC[C@H]1c1ncc(-c2ccc(-c3ccc(-c4cnc([C@@H]5CCCN5C(=O)[C@H](NC(=O)OC)c5ccccc5)[nH]4)nn3)cc2)[nH]1)c1ccccc1` [Example 152j-10, methyl ((1R)-2-((2S)-2-(5-(6-(4-(2-((2S)-1-((2R)-2-((methoxycarbonyl)amino)-2-phenylacetyl)-2-pyrrolidinyl)-1H-imidazol-5-yl)phenyl)-3-pyridazinyl)-1H-imidazol-2-yl)-1-pyrrolidinyl)-2-oxo-1-phenylethyl)carbamate], with 1 to 99 nM; and `CN(C)[C@@H](C(=O)N1CCC[C@H]1c1ncc(-c2cnc(-c3ncc(-c4cnc([C@@H]5CCCN5C(=O)[C@@H](c5ccccc5)N(C)C)[nH]4)cn3)nc2)[nH]1)c1ccccc1` [Example 153c-3, (1R,1′R)-2,2′-(2,2′-bipyrimidine-5,5′-diylbis(1H-imidazole-5,2-diyl(2S)-2,1-pyrrolidinediyl))bis(N, N-dimethyl-2-oxo-1-phenylethanamine)], with 1000 to 10000 nM.
`CN(C)[C@@H](C(=O)N1CCC[C@H]1c1ncc(-c2ccc(-c3ncc(-c4cnc([C@@H]5CCCN5C(=O)[C@@H](c5ccccc5)N(C)C)[nH]4)cn3)cc2)[nH]1)c1ccccc1` [Example 152j-1, (1R)-2-((2S)-2-(5-(2-(4-(2-((2S)-1-((2R)-2-(dimethylamino)-2-phenylacetyl)-2-pyrrolidinyl)-1H-imidazol-5-yl)phenyl)-5-pyrimidinyl)-1H-imidazol-2-yl)-1-pyrrolidinyl)-N,N-dimethyl-2-oxo-1-phenylethanamine]: under setting [1], the concentration giving a half-maximal response (EC50) was 1 to 99 nM.
Still for that read-out and setting: then `CCN(CC)C(C)C(=O)N1CCC[C@H]1c1nc(C(F)(F)F)c(-c2ccc(-c3ncc(-c4cnc([C@@H]5CCCN5C(=O)[C@@H](C)N(CC)CC)[nH]4)cn3)cc2)[nH]1` (stereo in doubt) [Example J51, (2R)-1-((2S)-2-(5-(4-(5-(2-((2S)-1-((2R)-2-(diethylamino)propanoyl)-2-pyrrolidinyl)-1H-imidazol-5-yl)-2-pyrimidinyl)phenyl)-4-(trifluoromethyl)-1H-imidazol-2-yl)-1-pyrrolidinyl)-N,N-diethyl-1-oxo-2-propanamine], with 1 to 99 nM.
As to `COC(=O)N[C@@H](C(=O)N[C@@H](C)c1ncc(-c2ccc(-c3ccc(-c4cnc([C@H](C)NC(=O)[C@H](NC(=O)OC)c5ccccc5)[nH]4)cn3)cc2)[nH]1)c1ccccc1` [Example 152j-23, methyl ((1R)-2-(((1S)-1-(5-(6-(4-(2-((1S)-1-(((2R)-2-((methoxycarbonyl)amino)-2-phenylace-tyl)amino)eth-yl)-1H-imidazol-5-yl)phenyl)-3-pyridinyl)-1H-imidazol-2-yl)ethyl)amino)-2-oxo-1-phenylethyl)carbamate], the EC50 under setting [1] lay in the range of 0.001 to 0.999 nM.
As to `COC(=O)N[C@@H](C)C(=O)N1CCC[C@H]1c1ncc(-c2cnc(-c3ccc(-c4[nH]c([C@@H]5CCCN5C(=O)[C@H](C)NC(=O)OC)nc4C(F)(F)F)cc3)nc2)[nH]1` [Example J50, methyl ((1S)-2-((2S)-2-(5-(4-(5-(2-((2S)-1-(N-(methoxycarbonyl)-L-alanyl)-2-pyrrolidinyl)-1H-imidazol-5-yl)-2-pyrimidinyl)phenyl)-4-(trifluoromethyl)-1H-imidazol-2-yl)-1-pyrrolidinyl)-1-methyl-2-oxoethyl)carbamate], the EC50 under setting [1] fell in the range of 0.001 to 0.999 nM.
Consider `CN(C)[C@@H](C(=O)N1CCC[C@H]1c1ncc(-c2ccc(-c3ccc(-c4cnc([C@@H]5CCCN5C(=O)[C@@H](c5ccccc5)N(C)C)[nH]4)cc3)cc2)[nH]1)c1ccccc1` [Example 1, (1R,1′R)-2,2′-(4,4′-biphenyldiylbis(1H-imidazole-5,2-diyl(2S)-2,1-pyrrolidinediyl))bis(N,N-dimethyl-2-oxo-1-phenylethanamine)], for which the EC50 under setting [1] is 0.001 to 0.999 nM.
Take `CN(C)[C@@H](C(=O)N1CCC[C@H]1c1ncc(-c2ccc(-c3ccc(-c4cnc([C@@H]5CCCN5C(=O)[C@@H](c5ccccc5)N(C)C)[nH]4)cc3C(F)(F)F)cc2)[nH]1)c1ccccc1` [Example 130, (1R,1′R)-2,2′-((2-(trifluoromethyl)-4,4′-biphenyldiyl)bis(1H-imidazole-5,2-diyl(2S)-2,1-pyrrolidinediyl))bis(N,N-dimethyl-2-oxo-1-phenylethanamine)]: the concentration for a half-maximal effect (EC50) under setting [1] was 0.001 to 0.999 nM.
Turning to `COC(=O)N[C@H](C(=O)N[C@H](c1nc(-c2ccc(-c3ccc(-c4c[nH]c(C5CCCN5C(=O)[C@@H](NC(=O)OC)[C@@H](C)OC)n4)cc3)cc2)c[nH]1)C(C)C)[C@@H](C)OC` (stereo partly drawn) [Example R37], the EC50 under setting [1] was in the range of 0.001 to 0.999 nM.

The term EC50 denotes the midpoint of the concentration-response curve.
